pIC50: −log10 of the molar value.
Key:
[1] = molecular target: T1, KDM5B (PLU-1) (Homo sapiens, UniProt Q9UGL1); test: Histone lysine demethylase AlphaLISA assay, KDM5B; assay type: biochemical; conditions: in vitro enzyme, read-out: KDM5B IC50 (HDME Inhibition)
T1 construct: 1-809; host or cells: E. coli
T1 sequence (Q9UGL1 1-809): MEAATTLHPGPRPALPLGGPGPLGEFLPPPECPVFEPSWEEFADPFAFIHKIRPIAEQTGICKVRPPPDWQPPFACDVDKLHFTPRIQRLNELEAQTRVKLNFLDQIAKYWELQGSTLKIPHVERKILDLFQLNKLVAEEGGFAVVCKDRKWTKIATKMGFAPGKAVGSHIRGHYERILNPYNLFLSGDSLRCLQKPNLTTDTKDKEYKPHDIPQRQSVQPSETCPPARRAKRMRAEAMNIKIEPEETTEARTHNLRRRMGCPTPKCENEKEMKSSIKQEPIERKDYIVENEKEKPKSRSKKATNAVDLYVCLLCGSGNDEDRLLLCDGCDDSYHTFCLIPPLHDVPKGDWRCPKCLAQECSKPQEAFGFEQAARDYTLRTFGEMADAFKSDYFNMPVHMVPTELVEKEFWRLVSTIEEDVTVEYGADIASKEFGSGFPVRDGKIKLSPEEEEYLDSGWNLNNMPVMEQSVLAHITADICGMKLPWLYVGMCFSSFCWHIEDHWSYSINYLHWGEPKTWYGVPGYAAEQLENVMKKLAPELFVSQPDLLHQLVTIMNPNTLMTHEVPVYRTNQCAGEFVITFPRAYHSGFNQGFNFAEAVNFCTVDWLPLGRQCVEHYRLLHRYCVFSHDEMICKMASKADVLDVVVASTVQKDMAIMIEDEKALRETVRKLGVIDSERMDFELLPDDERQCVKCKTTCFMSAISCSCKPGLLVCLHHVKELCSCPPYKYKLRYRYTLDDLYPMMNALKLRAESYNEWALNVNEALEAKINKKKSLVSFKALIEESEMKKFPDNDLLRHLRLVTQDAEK

[2] = molecular target: T2, KDM2B (FBXL10) (Homo sapiens, UniProt Q8NHM5); test: Histone lysine demethylase AlphaLISA assay, KDM2B; assay type: biochemical; conditions: in vitro enzyme, read-out: KDM2B IC50 (HDME Inhibition)
T2 construct: 1-650; purchased BPS Bioscience, US; host or cells: Bac (baculovirus/insect cells)
T2 sequence (Q8NHM5 1-650): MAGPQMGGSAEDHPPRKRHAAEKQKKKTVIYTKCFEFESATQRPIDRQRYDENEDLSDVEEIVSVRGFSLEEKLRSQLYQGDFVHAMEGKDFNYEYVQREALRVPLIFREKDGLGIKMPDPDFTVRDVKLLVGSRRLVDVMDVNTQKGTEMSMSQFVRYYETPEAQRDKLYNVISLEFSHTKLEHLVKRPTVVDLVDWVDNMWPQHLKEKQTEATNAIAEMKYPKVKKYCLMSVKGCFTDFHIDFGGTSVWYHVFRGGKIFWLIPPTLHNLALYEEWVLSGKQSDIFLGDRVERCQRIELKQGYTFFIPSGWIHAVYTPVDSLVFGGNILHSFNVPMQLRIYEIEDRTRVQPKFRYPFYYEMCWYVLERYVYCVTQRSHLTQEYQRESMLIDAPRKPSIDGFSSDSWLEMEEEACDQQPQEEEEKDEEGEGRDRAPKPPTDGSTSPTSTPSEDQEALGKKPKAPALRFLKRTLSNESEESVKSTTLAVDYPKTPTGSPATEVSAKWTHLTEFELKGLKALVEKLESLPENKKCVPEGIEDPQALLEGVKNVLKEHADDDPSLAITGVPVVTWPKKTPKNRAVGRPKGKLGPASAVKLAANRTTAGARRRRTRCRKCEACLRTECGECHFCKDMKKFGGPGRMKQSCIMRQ

[3] = molecular target: PHF8 (KDM7) (Homo sapiens, UniProt Q9UPP1); test: Histone lysine demethylase AlphaLISA assay, PHF8; assay type: biochemical; conditions: in vitro enzyme, read-out: PHF8 IC50 (HDME Inhibition)
[4] = molecular target: T3, KDM4C (JMJD2C) (Homo sapiens, UniProt Q9H3R0); test: Histone lysine demethylase AlphaLISA assay, KDM4C; assay type: biochemical; conditions: in vitro enzyme, read-out: KDM4C IC50 (HDME Inhibition)
T3 construct: 1-349; host or cells: E. coli
T3 sequence (Q9H3R0 1-349): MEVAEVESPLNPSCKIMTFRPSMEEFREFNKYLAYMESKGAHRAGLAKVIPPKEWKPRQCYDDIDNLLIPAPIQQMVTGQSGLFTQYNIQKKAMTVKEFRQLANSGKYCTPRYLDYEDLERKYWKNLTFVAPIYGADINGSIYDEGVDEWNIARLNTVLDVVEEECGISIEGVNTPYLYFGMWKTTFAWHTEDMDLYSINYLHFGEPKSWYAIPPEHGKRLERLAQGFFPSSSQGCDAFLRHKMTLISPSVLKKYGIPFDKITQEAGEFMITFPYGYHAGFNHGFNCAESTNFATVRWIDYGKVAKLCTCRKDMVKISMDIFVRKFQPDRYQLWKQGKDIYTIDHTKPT

[5] = molecular target: T4, KDM6A (UTX) (Homo sapiens, UniProt O15550); test: Histone lysine demethylase AlphaLISA assay, KDM6A; assay type: biochemical; conditions: in vitro enzyme, read-out: KDM6A IC50 (HDME Inhibition)
T4 construct: 919-1401; host or cells: E. coli

[6] = system: H3K4me3 mark in U2OS cells; test: Histone lysine demethylase immunofluorescence assay, non-transfected U2OS cells; assay type: cell-based; conditions: Homo sapiens, 20 hours incubation, read-out: IC50 value, staining of the H3K4me3 mark in cells
Procedure: Generally, the cells are incubated with compounds, washed and incubated with a methylation specific antibody before imaging. IC50 values are determined by measurement of the H3K4me3 staining.
Histone Lysine Demethylase Immunofluorescence Assays for IC50 value Determination, non-transfected cells
U2OS cells are harvested and seeded into multi well plates into media containing compound. The media is DMEM containing 5% FBS and pen/strep. 20 hours after incubation of cells with compounds, the cells are washed once in PBS, harvested by fixation with formaldehyde 4% aqueous solution, and washed in PBS. Subsequently, the cells are permeabilized in PBS with 0.2% Triton X-100. Blocking is performed in PBS with 0.2% Triton X-100 and 5% FBS. The cells are incubated with αH3K4me3 primary antibody (Cell Signaling, #9751S) in blocking solution over night at 4° C. After incubation with primary antibody, the cells are washed with PBS, incubated with secondary antibody (Alexa fluor 594 goat anti rabbit IgG, Invitrogen, A11012) and Hoechst, (Sigma, 33342) in blocking solution, and washed again with PBS. Finally, PBS is added and high throughput imaging and analysis are performed by an IN Cell Analyzer 1000 (GE Healthcare). IC50 values are determined based on an average measure of the staining of the H3K4me3 mark in cells.

Sequence of PHF8 (KDM7) (Q9UPP1 whole entry): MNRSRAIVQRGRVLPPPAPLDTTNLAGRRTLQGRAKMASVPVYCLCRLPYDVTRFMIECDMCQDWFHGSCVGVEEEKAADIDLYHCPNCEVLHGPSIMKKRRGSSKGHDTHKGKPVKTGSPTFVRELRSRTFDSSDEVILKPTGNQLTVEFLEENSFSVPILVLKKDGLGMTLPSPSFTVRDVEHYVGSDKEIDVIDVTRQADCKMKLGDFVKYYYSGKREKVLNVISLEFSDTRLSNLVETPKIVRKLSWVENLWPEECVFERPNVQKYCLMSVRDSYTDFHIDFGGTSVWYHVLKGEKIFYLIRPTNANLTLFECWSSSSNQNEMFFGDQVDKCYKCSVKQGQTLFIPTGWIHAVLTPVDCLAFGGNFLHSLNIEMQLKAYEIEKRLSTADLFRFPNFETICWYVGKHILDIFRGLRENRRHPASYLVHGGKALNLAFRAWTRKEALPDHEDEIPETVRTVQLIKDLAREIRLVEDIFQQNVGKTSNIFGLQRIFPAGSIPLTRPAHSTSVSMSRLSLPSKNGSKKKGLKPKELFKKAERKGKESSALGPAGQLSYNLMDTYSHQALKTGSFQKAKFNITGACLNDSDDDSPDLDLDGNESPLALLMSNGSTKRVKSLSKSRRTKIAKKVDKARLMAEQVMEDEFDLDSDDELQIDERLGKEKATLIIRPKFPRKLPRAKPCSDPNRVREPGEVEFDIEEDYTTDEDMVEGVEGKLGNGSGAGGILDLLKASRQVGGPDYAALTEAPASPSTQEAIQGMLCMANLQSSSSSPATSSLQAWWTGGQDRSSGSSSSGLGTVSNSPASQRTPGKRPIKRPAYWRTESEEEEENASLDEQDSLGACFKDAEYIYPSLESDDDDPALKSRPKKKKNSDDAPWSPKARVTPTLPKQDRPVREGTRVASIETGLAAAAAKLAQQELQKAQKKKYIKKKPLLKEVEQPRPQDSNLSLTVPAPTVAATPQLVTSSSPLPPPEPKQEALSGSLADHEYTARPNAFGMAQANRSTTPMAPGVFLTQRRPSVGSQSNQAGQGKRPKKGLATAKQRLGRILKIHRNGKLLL
T4 sequence (O15550 919-1401): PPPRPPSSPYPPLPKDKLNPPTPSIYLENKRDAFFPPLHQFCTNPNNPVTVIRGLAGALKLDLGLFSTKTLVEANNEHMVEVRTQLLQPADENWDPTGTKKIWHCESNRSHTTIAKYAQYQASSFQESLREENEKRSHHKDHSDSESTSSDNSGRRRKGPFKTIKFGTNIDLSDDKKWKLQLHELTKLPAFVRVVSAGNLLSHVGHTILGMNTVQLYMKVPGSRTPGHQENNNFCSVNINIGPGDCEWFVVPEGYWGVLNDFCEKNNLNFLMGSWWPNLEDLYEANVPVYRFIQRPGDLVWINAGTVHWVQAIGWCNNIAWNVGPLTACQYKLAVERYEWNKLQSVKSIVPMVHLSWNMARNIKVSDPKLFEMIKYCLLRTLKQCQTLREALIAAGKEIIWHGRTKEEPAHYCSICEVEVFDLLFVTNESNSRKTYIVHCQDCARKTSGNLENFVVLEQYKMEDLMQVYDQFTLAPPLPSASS

Compound	pIC50 [1]	pIC50 [2]	pIC50 [3]	pIC50 [4]	pIC50 [5]	pIC50 [6]
C=CCN(CC=C)C(=O)[C@@H](CCS(C)(=O)=O)NCc1cc(C(=O)O)ccn1 [Compound 37, 2-({[(1R)-1-[bis(prop-2-en-1-yl)carbamoyl]-3-methanesulfonylpropyl]amino}methyl)pyridine-4-carboxylic acid]	5.60 to 6.60	> 6.60	> 6.60	< 5.60	< 5.60	
CCN1CCC(CNCc2cc(C(=O)O)ccn2)C1=O (centres unmarked) [Compound 39, 2-({[(1-ethyl-2-oxopyrrolidin-3-yl)methyl]amino}methyl)pyridine-4-carboxylic acid]	> 6.60	> 6.60	5.60 to 6.60	5.60 to 6.60	< 5.60	
Cc1cn2c(n1)CCN(Cc1cc(C(=O)O)ccn1)CC2 [Compound 69, 2-({2-methyl-5H,6H,7H,8H,9H-imidazo[1,2-d][1,4]diazepin-7-yl}methyl)pyridine-4-carboxylic acid]	> 6.60	< 5.60	5.60 to 6.60	5.60 to 6.60	< 5.60	
COc1ccc([C@@H](C)N2CCC[C@@H](CNCc3cc(C(=O)O)ccn3)C2=O)cc1 [Compound 80, 2-[({[(3S)-1-[(1R)-1-(4-methoxyphenyl)ethyl]-2-oxopiperidin-3-yl]methyl}amino)methyl]pyridine-4-carboxylic acid]	> 6.60	> 6.60	5.60 to 6.60	5.60 to 6.60	< 5.60	
COc1ccc([C@@H](C)N2CCC[C@H](CNCc3cc(C(=O)O)ccn3)C2=O)cc1 [Compound 81, 2-[({[(3R)-1-[(1R)-1-(4-methoxyphenyl)ethyl]-2-oxopiperidin-3-yl]methyl}amino)methyl]pyridine-4-carboxylic acid]	> 6.60	> 6.60	5.60 to 6.60	5.60 to 6.60	< 5.60	
O=C(N1CC2(CC2)COC1c1ccnc(CN2CCCn3ccnc3C2)c1)C(F)(F)F (centres unmarked) [Compound 108, 2,2,2-trifluoro-1-[6-(2-{5H,6H,7H,8H,9H-imidazo[1,2-a][1,4]diazepin-8-ylmethyl}pyridin-4-yl)-5-oxa-7-azaspiro[2.5]octan-7-yl]ethan-1-one]	> 6.60	5.60 to 6.60		5.60 to 6.60		> 5.60
